According to article PMC7279487, “Dual Target Ligands with 4-tert-Butylphenoxy Scaffold as Histamine H3 Receptor Antagonists and Monoamine Oxidase B Inhibitors” (International Journal of Molecular Sciences, 2020):

Assays:
hMAO B [1] = target: T1, hMAO B (Homo sapiens, UniProt P27338); experiment: hMAO B inhibition, fluorometric Amplex Red MAO assay; type: biochemical
T1 construct: purchased Sigma Aldrich M7441
T1 sequence (P27338 1-520): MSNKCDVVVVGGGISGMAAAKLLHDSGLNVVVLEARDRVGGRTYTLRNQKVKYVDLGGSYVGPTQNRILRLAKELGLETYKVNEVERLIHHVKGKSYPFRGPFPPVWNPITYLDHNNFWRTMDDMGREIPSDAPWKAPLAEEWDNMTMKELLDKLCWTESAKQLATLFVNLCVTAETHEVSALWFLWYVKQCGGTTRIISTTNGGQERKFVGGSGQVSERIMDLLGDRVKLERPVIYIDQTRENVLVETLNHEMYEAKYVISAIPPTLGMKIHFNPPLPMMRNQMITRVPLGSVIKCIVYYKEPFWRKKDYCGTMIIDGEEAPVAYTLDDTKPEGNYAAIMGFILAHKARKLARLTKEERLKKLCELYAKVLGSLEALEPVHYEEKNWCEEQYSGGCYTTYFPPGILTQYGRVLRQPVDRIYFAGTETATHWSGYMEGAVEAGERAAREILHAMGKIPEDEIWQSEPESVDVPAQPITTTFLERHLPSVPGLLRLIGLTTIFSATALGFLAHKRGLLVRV

HEK-293 cells = experiment: toxicity in HEK-293 cells (EZ4U); type: cell-based, human; settings: 48 h incubation; EZ4U
Experimental: (§1) The used reference cytostatic drug doxorubicin (DX) decreased cell viability <50% under the same conditions at very low concentrations of 0.2 and 0.05 µM. […] Oxidative damage was induced by very high toxic levels of hydrogen peroxide (H2O2; 300 µM), the popular cell model for PD research, in neuroblastoma SH-SY5Y cell line. […] Salsolinol (SAL) was used at a concentration of 50 µM as the reference compound with the proven neuroprotection activity.
The HEK-293 cells were seeded at a concentration of 1.5 × 10^4 cells/well in 200 μL culture medium and incubated for 24 h at 37 °C and 5% CO2. […] Then, 25 μL EZ4U labelling mixture (Biomedica, Vienna, Austria) was added and the cells were incubated for 2 h. The spectrophotometric absorbance of the samples was measured using a microplate reader (EnSpire, PerkinElmer, Waltham, MA, USA) at 492 nm. All measurements were performed in triplicate, and results are shown as mean ± SD.

hMAO B [2] = target: T1, hMAO B; experiment: hMAO B reversibility studies; type: biochemical; settings: inhibitor at IC80; without preincubation; compared with safinamide and rasagiline
Experimental: Reversibility of MAO B inhibitors was tested as described previously with slight modification. Two experiments were performed simultaneously. In the first experiment, inhibitors (in concentrations corresponding to their IC80 values) were incubated with the enzyme and p-tyramine (10 μM) for 22 min (measuring fluorescence every two minutes).

hMAO B [3] = target: T1, hMAO B; experiment: hMAO B kinetic studies (Michaelis-Menten, Lineweaver-Burk); type: biochemical
Experimental: Results from the kinetic experiment were used for determination of Michaelis–Menten curves (Figure 4A,C). […] From Michaelis–Menten curves, Vmax and KM values were fitted (Table 2). For both compounds, Vmax values decreased curvilinearly and KM values increased curvilinearly with the increased inhibitor concentrations.
The mode of the inhibition was tested according to the standard procedure described in Reversibility Studies using different concentrations of the substrate. […] Substrate was used in six concentrations: […], 0.1 mM, 0.5 mM, 1 mM, 1.5 mM, and 2 mM. After the experiment, velocities were calculated and put on the graph (y-axis) against the concentration of the substrate (x-axis). From the Michaelis–Menten plot Vmax, KM, and α values were calculated for different concentrations of the inhibitor. Double-reciprocal plot (Lineweaver–Burk plot) were prepared to display the data.
The α values for different modes of reversible inhibition as well as their diagnostic signature on […]
The α value for compound 9 was calculated by GraphPad Prism software from the nonlinear regression curves using following equation for mixed- […]
v = Vmax*[S] / [S]*(1+ [I]/ αKi) + KM*(1+ [I]/Ki) (1) v – velocity of enzyme reaction. Vmax - maximum velocity (at infinite substrate concentration); Ki – dissociation constant for Enzyme-Inhibitor complex (in the enzymology literature other symbols can be used such as: Ki, Kii , KEI etc.); αKi – dissociation constant for Enzyme-Substrate-Inhibitor complex (in the literature also under the symbols: Ki’, Kis and KES); KM – Michaelis-Menten constant; [I]– concentration of the inhibitor; [S] – concentration of the substrate [Ref S1].
Table S1. Relation between inhibition modality, α value, and diagnostic signature on the double-reciprocal plots (i.e Lineweaver-Burk plot) [S2].
α Inhibition modality Diagnostic signature on […]
α = 1 (inhibitor binds to free enzyme lines converge at the x-axis and enzyme-substrate complex
(inhibitor can bind to free lines converge to the left of the α > 1 enzyme and enzyme-substrate y-axis and above the x-axis complex unequally), inhibitor’s affinity is higher for free enzyme
(inhibitor can bind to free
α < 1 enzyme and enzyme-substrate lines converge to the left of the complex unequally), inhibitor’s y-axis and below the x-axis affinity is higher for the enzyme- […]
α → ∞ (inhibitor and substrate compete lines converge at the y-axis for the same site of binding) […]
α → 0 and α > 0 (inhibitor binds only to the parallel lines

[4] = system: neuroblastoma SH-SY5Y cells; experiment: toxicity against SH-SY5Y cells; type: cell-based; settings: 10 and 50 µM
Experimental: as §1
SH-SY5Y cells were seeded in microplate at a concentration of 2.5 × 10^4 cells/well in 100 μL culture medium and cultured for 24 h at 37 C and 5% CO2 to reach 70% confluence. […] (R,S)-salsolinol (purity ≥ 99%) was obtained from Cayman Chemical (Ann Arbor, MI, USA). Next, H2O2 was added at final concentration 300 μM and the cells were placed into the incubator. After 24 h of compounds co-incubation with H2O2, the CellTiter 96®AQueous Non-Radioactive Cell Proliferation Assay (MTS) labeling mixture was added to each well, and the microplates were incubated under the same conditions for 5 h. The absorbance was measured using a microplate reader EnSpire (PerkinElmer, Waltham, MA USA) at 490 nm. All measurements were performed in triplicate, and results are shown as mean ± SD.

[5] = concentration used in kinetic studies

## CC(C)(C)c1ccc(OCCCN2CCCCC2)cc1 [DL76, 1-(3-(4-tert-butylphenoxy)propyl)piperidine]
hMAO B [1]; [5]
  IC20: 7 nM
  IC80: 164 nM
hMAO B [1]; mean ± SEM of 2-5 independent experiments, p-tyramine 200 μM
  IC50: 48 ± 15 nM
HEK-293 cells
  HEK-293 cell viability: observed only at the highest doses of 125 µM and 250 µM
hMAO B [2]
  type of hMAO B inhibition (reversible or irreversible): reversible
hMAO B [3]; calculated by GraphPad Prism from nonlinear regression, mixed-model inhibition
  constant α: 4.6
hMAO B [3]; from Vmax and KM behaviour and Lineweaver-Burk plot
  mode of hMAO B inhibition: mixed mode inhibition
hMAO B [3]; inhibitor concentration 7 nM
  Vmax (RFU/min): 1628 RFU/min
hMAO B [3]; inhibitor concentration 48 nM
  Vmax (RFU/min): 1165 RFU/min
hMAO B [3]; inhibitor concentration 164 nM
  Vmax (RFU/min): 726.3 RFU/min
[4]
  toxic effect against SH-SY5Y cells: no toxic effect
